The results in this text go back to BindingDB's records for doi:10.1007/s10822-022-00478-x (Roche Innovation Center Basel, F. Hoffmann-La Roche Ltd., 2022).

The structures appear in SMILES notation.

The experiment concerns the target cAMP and cAMP-inhibited cGMP 3',5'-cyclic phosphodiesterase 10A (Homo sapiens, UniProt Q9Y233). The experiment in a line: PDE10A assay. Put shortly:
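Scintillation proximity readout of [3H]cGMP hydrolysis (50 nM final substrate, 15 min) by 2 ng/well human PDE10A after 15 min compound preincubation at RT, pH 7.5 with MgCl2. Four-parameter logistic fit gave IC50, reported as pIC50.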

In turn, `COCCNC(=O)c1nc(C2CC2)cnc1Nc1cncnc1` [Roche-Dataset for PDE10A, Compound 946] displayed an IC50 of 2540 nM.

Take `COC[C@H]1CCCN1c1nc(CCc2nc3c(C)ncc(C)n3n2)n(C)n1` [Roche-Dataset for PDE10A, Compound 249]: inhibition was half-maximal at 12 nM (IC50). Against the preceding molecule, the IC50 is about 210-fold lower.

For `CC(C)n1nc(-c2ccccn2)cc1NC(=O)c1nc(C2CC2)ccc1Nc1cncnc1` [US8470820, 27], the concentration for half-maximal inhibition (IC50) turned out to be 2.55 nM.

With `COc1ccc2c(=O)n(C)c3c(C(C)C)nc(-c4ccccc4Cl)n3c2c1` [Roche-Dataset for PDE10A, Compound 908], the concentration for half-maximal inhibition (IC50) was found to be 771 nM.

`CCc1nc2ccc(OCc3cccc(N4CCCC4)n3)nn2c1C` [2-ethyl-3-methyl-6-((6-(pyrrolidin-1-yl)pyridin-2-yl)methoxy)imidazo[1,2-b]pyridazine] showed a concentration for half-maximal inhibition (IC50) of 547 nM.

Turning to `CCN(C)C(=O)c1cnn(C)c1C(=O)Nc1ccn2cc(-c3cccc(O)c3)nc2n1` [Roche-Dataset for PDE10A, Compound 73], 3.47 nM corresponded to half-maximal inhibition (IC50). This IC50 lies about 160-fold lower than the previous one.

Take `CNC(=O)c1cc2[nH]c(-c3ccccc3)nc2cc1NC(=O)c1c(C(=O)N2CCOCC2)cnn1C` [Roche-Dataset for PDE10A, Compound 453]: the IC50 came to 195 nM.

As for `O=C(c1nc(C2CC2)cnc1Nc1cncnc1)N1CCN(Cc2ccccc2)CC1` [Roche-Dataset for PDE10A, Compound 1008], the midpoint of inhibition, the IC50, lay at 371 nM.

Regarding `Cn1ncc(C(=O)N2CCC2)c1C(=O)Nc1n[nH]cc1C#N` [Roche-Dataset for PDE10A, Compound 1112], the IC50 stood at 325 nM.

As for `Cc1cccc(-c2cn3c(n2)C[C@H](NC(=O)c2c(C(=O)N4CCC4)cnn2C)CC3)c1` [Roche-Dataset for PDE10A, Compound 141], half-maximal inhibition (IC50) was put at 7.36 nM.

Take `Cn1ncc(C(=O)N2CC(F)C2)c1C(=O)Nc1ccn2nc(-c3cccnc3)nc2c1` [Roche-Dataset for PDE10A, Compound 337]: the IC50 came out at 1.16 nM.

Take `CCC(=O)c1cc(NC(=O)c2nc(C3CC3)cnc2Nc2cncnc2)ccc1O` [Roche-Dataset for PDE10A, Compound 875]: the IC50 came out at 26 nM. This IC50 is about 22-fold higher than that of the molecule before.

The molecule `Cn1ncc(C(=O)N2CCC2)c1C(=O)Nc1ccn2nc(-c3cccc(OCCF)c3)nc2c1` [Roche-Dataset for PDE10A, Compound 76] yielded an IC50 of 0.9 nM.

For the molecule `Cc1c(Cl)cc(C(F)(F)F)c2nc(CCc3nc(N4CCCC4)nn3C)nn12` [Roche-Dataset for PDE10A, Compound 157], the IC50 stood at 1.1 nM.

`CCn1nc(C)cc1C(=O)Nc1cc2nc(-c3ccccc3)[nH]c2cc1C(=O)NCCOC` [Roche-Dataset for PDE10A, Compound 256] yielded an IC50 of 14 nM.

Turning to `Cn1ncc(-c2ccccc2)c1C(=O)Nc1ccn2nc(-c3ccccc3)nc2c1` [Roche-Dataset for PDE10A, Compound 172], inhibition was half-maximal at 131 nM (IC50).

In turn, `CC(C)n1nc(NC(=O)c2nc(C3CC3)ccc2Nc2cncnc2)cc1C(=O)N(C)C` [Roche-Dataset for PDE10A, Compound 1013] displayed a half-inhibitory concentration (IC50) of 793 nM.

Molecule `CN(C)c1nc(CCc2nccn2-c2ccccc2)nc2ccccc12` [Roche-Dataset for PDE10A, Compound 326] registered a half-inhibitory concentration (IC50) of 587 nM.

As for `O=C(Nc1cnccc1C(=O)N1CC(F)(F)C1)c1nc(C2CC2)ccc1Nc1cncnc1` [Roche-Dataset for PDE10A, Compound 508], the IC50 is 30 nM.

With `O=C(Nc1cn(Cc2ccccn2)cn1)c1nc(C2CC2)ccc1Nc1cncnc1` [Roche-Dataset for PDE10A, Compound 1036], half-maximal inhibition (IC50) was put at 110 nM.

For the molecule `Cc1c(Br)cn2nc(/C=C/c3nc(N4CCCC4)n(C)n3)nc2c1C` [Roche-Dataset for PDE10A, Compound 364], the 50% inhibitory concentration (IC50) is 73 nM.

On to `O=C(Nc1conc1-c1ccccn1)c1nc(C2CC2)ccc1Nc1cncnc1` [Roche-Dataset for PDE10A, Compound 990], for which the IC50 was found to be 15 nM.

The molecule `CN(C)c1nc2cc(NC(=O)c3c(C(=O)N4CC(F)C4)cnn3C)ccn2n1` [Roche-Dataset for PDE10A, Compound 513] registered a concentration for half-maximal inhibition (IC50) of 20 nM.

`O=C(NCCc1cnc(-c2ccccc2)[nH]1)c1nc(C2CC2)ccc1Nc1cncnc1` [Roche-Dataset for PDE10A, Compound 102] yielded an IC50 of 2.11 nM.

`CNc1cc(C(=O)Nc2ccn3nc(-c4ccccc4)nc3c2)cc(Cl)n1` [Roche-Dataset for PDE10A, Compound 199] registered an IC50 of 86 nM.

Take `O=C(c1nc(C2CC2)cnc1Nc1cncnc1)N1CCC(N2CCOCC2)CC1` [Roche-Dataset for PDE10A, Compound 1098]: the IC50 is 10000 nM.

As for `CN(c1cncnc1)c1ccc(C2CC2)nc1C(=O)N[C@@H]1CCN(c2ccc(Br)cn2)C1` [Roche-Dataset for PDE10A, Compound 95], the concentration for half-maximal inhibition (IC50) stood at 8340 nM.

On to `Cn1cc(S(C)(=O)=O)c(C(=O)Nc2ccc3cc(-c4ccccc4)nn3c2)n1` [Roche-Dataset for PDE10A, Compound 416], for which inhibition was half-maximal at 88 nM (IC50).

Take `O=C(NCCc1noc(Cc2ccccc2)n1)c1nc(C2CC2)cnc1Nc1cncnc1` [Roche-Dataset for PDE10A, Compound 275]: half-maximal inhibition (IC50) required 137 nM.

`Cn1ncc(NC(=O)c2nc(C3CC3)cnc2Nc2cncnc2)c1C(=O)N1CCCO1` [US8703768, 335] gave an IC50 of 0.75 nM. Against the preceding molecule, the IC50 is about 180-fold lower.

For the molecule `O=C(Nc1cc(-c2ccccc2)no1)c1ccc2cc(-c3ccccc3)nn2c1` [Roche-Dataset for PDE10A, Compound 752], the concentration for half-maximal inhibition (IC50) came to 4500 nM.

`Cc1cc(NC(=O)c2c(C(=O)N3CCC3)cnn2C)cc(NC(=O)OC(C)(C)C)n1` [Roche-Dataset for PDE10A, Compound 1068] returned an IC50 of 207 nM.

In turn, `O=C(Nc1ccnc(C(=O)N2CCCCC2)c1)c1nc(C2CC2)cnc1Nc1cncnc1` [Roche-Dataset for PDE10A, Compound 730] came in with an IC50 of 67 nM.

As for `CCOC(=O)c1cnn(C)c1C(=O)Nc1ccn2nc(N(C)C3CC3)nc2c1` [Roche-Dataset for PDE10A, Compound 486], the IC50 turned out to be 58 nM.

For `O=C(Nc1ccc2cc(-c3ccccc3)nn2c1)c1onc2ccc(Br)cc12` [Roche-Dataset for PDE10A, Compound 523], half-maximal inhibition (IC50) was put at 10 nM.

On to `Cc1ncc(C)n2nc(CCc3nc(-n4cccn4)nn3C)nc12` [Roche-Dataset for PDE10A, Compound 836], for which the IC50 stood at 169 nM.

Turning to `O=C(Nc1ccn(Cc2ccccc2)n1)c1nc(C2CC2)ccc1Nc1cncnc1` [Roche-Dataset for PDE10A, Compound 446], the IC50 worked out at 3.41 nM.

The molecule `Cn1ncc(C(=O)N2CCC2)c1C(=O)Nc1cc[nH]n1` [Roche-Dataset for PDE10A, Compound 1155] came in with an IC50 of 3130 nM.

The molecule `CC(C)c1cc(NC(=O)c2c(C(=O)N3CCC3)cnn2C)[nH]n1` [Roche-Dataset for PDE10A, Compound 1070] showed an IC50 of 10000 nM.

`Cn1ncc(C(=O)N2CCC2)c1C(=O)Nc1ccn(Cc2ccc(Cl)cc2)n1` [Roche-Dataset for PDE10A, Compound 970]: the IC50 amounted to 120 nM.

As to `Cn1cc(C(=O)Nc2ccn3cc(-c4ccccc4)nc3n2)c(C(=O)NCc2ccccn2)n1` [Roche-Dataset for PDE10A, Compound 1029], the half-maximal inhibitory concentration (IC50) is 397 nM. Compared with the last molecule, the IC50 is about 3.3-fold higher.

`O=C(Nc1cc(-c2cccc(Cl)n2)nn1CCO)c1nc(C2CC2)ccc1Nc1cncnc1` [US8470820, 24]: the IC50 was found to be 1.41 nM.

`COc1cccc(-c2nc3cc(NC(=O)c4c(C(=O)N5CCC5)cnn4C)ccn3n2)n1` [Roche-Dataset for PDE10A, Compound 160] returned an IC50 of 1.09 nM.

The molecule `O=C(Nc1ccn2nc(-c3ccccc3)nc2c1)c1ccno1` [Roche-Dataset for PDE10A, Compound 606] returned an IC50 of 2350 nM.

In turn, `Cc1cnc(C)n2nc(CCc3nc(N4CCCC4)nn3C3CC3)nc12` [Roche-Dataset for PDE10A, Compound 436] showed an IC50 of 18 nM.

In turn, `Cn1ncc(C(=O)N2CCOCC2)c1C(=O)N[C@@H]1CCn2cc(-c3ccc(F)cc3)nc2C1` [Roche-Dataset for PDE10A, Compound 346] yielded an IC50 of 4340 nM. This IC50 lies about 240-fold higher than the previous one.

Take `COc1cc(-c2nc3cc(NC(=O)c4c(C(=O)N5CCC5)cnn4C)ccn3n2)ccn1` [Roche-Dataset for PDE10A, Compound 185]: the IC50 worked out at 4.73 nM.

As to `CS(=O)(=O)c1ccc(CNC(=O)c2nc(C3CC3)cnc2Nc2cncnc2)cc1` [Roche-Dataset for PDE10A, Compound 800], the IC50 stood at 554 nM. Against the preceding molecule, the IC50 is about 120-fold higher.

As to `CNC(=O)c1cc2[nH]c(-c3ccccc3)nc2cc1NC(=O)c1cc[nH]n1` [Roche-Dataset for PDE10A, Compound 619], inhibition was half-maximal at 390 nM (IC50). The IC50 values of the last two molecules are within 1.5-fold of each other.

As for `Cn1nc(-c2ccc3ccccc3n2)cc1NC(=O)c1c(C(=O)N2CCC2)cnn1C` [Roche-Dataset for PDE10A, Compound 468], the IC50 amounted to 0.91 nM.

Consider `CNC(=O)c1cc(NC(=O)c2nc(C3CC3)ccc2Nc2cncnc2)n(C)n1` [Roche-Dataset for PDE10A, Compound 576], for which the half-maximal inhibitory concentration (IC50) came to 74 nM.

Take `Cc1cnc(C)n2nc(/C=C/c3nc(N4CCCC4)nn3C)nc12` [Roche-Dataset for PDE10A, Compound 474]: the half-maximal inhibitory concentration (IC50) worked out at 5.37 nM.

For `O=C(NCc1cncs1)c1nc(C2CC2)cnc1Nc1cncnc1` [Roche-Dataset for PDE10A, Compound 1028], the IC50 came out at 890 nM.

Molecule `O=C1c2ccccc2C(=O)N1CCc1cnc(-c2ccccc2)[nH]1` [Roche-Dataset for PDE10A, Compound 299] gave a 50% inhibitory concentration (IC50) of 503 nM.

`COCCN(C)C(=O)c1cnn(C)c1C(=O)Nc1ccn2cc(-c3cccc(OCCF)c3)nc2n1` [Roche-Dataset for PDE10A, Compound 45] showed an IC50 of 13 nM.

As for `CC(C)Oc1cc(C(=O)Nc2ccn3nc(-c4ccccc4)nc3c2)cc(Cl)n1` [Roche-Dataset for PDE10A, Compound 116], the half-inhibitory concentration (IC50) amounted to 65 nM.

`COC[C@H]1CCCN1c1n[nH]c(CCc2nc3c(C)ncc(C)n3n2)n1` [Roche-Dataset for PDE10A, Compound 376] registered an IC50 of 8.4 nM. This IC50 is about 7.7-fold lower than that of the molecule before.

Turning to `CCCCc1cc(NC(=O)c2c(C(=O)N3CCC3)cnn2C)n(C2CCCC2)n1` [Roche-Dataset for PDE10A, Compound 814], it took 619 nM to reach half-maximal inhibition (IC50).

Usually IC50 stands for the concentration that gives 50% inhibition. A lower IC50 goes with inhibition by little substance.
